Source: patent US20050215543A1, “Methods of treating HIV infection” (priority 2004, published 2005)

Test system: HIV-1 LAI
Experiment: microbe, parasite or virus in culture
Details: for EC50: Human immunodeficiency virus 1, MT2, 120 h; for Combination Indices at % HIV Inhibition (Confidence Interval) 50%: 50% HIV inhibition; for Combination Indices at % HIV Inhibition (Confidence Interval) 50% / Combination Indices at % HIV Inhibition (Confidence Interval) 75% / Combination Indices at % HIV Inhibition (Confidence Interval) 90%: 95% CI in parenthesis; for Combination Indices at % HIV Inhibition (Confidence Interval) 75%: 75% HIV inhibition; for Combination Indices at % HIV Inhibition (Confidence Interval) 90%: 90% HIV inhibition; for Overall Result: two-drug combination with Compound 1, all ratios and effect levels, MT-2/HIV-1 LAI, RT assay
Protocol: Virus and cell lines. The T-cell lines, MT-2 and PM-1 were obtained through the AIDS Research and Reference Reagent Program, NIAID, and were contributed by Dr. D. Richman and Dr. R. Gallo, respectively. Both cell lines were cultured in RPMI 1640 medium supplemented with 10% fetal bovine serum, 2 mM L-glutamine and sub-cultured twice a week. The LAI strain of HIV-1 was obtained from the Fred Hutchinson Cancer Research Center, and the Bal strain was from NIH. Both virus stocks were amplified and titered in MT-2 cells (LAI) and PM-1 cells (Bal) using a virus infectivity assay.
Drug Susceptibility and Cytotoxicity Assays. For drug susceptibility assays, MT-2 cells were infected with HIV-1 LAI (or PM-1 cells with HIV-1 Bal) at an MOI of 0.005, and seeded into 96-well microtiter plates (0.1×10^6 cells/ml) containing serial dilutions of test compounds. […] Each drug ratio consisted of an array of 3-fold serial dilutions, and was performed in quadruplicate. The plates were incubated at 37° C./5% CO2. The MT-2 cells infected with HIV-1 LAI were incubated for 5 days. On day-five post-infection, 20 μl from each well was harvested and quantitated by a reverse transcriptase (RT) assay, or in samples involving non-nucleoside RT inhibitors, an MTS assay. The PM-1 cells infected with HIV-1 Bal and used for studying the combinations with CCR5 inhibitors were incubated for six days. On day-six post-infection, 20 μl from each well was harvested, 20- and 50-fold diluted and quantitated by p24 assay. Cytotoxicity assays were performed using uninfected cells, exposed to the same drug combinations, and incubated for six days. Cell viability was determined by an XTT assay. The CC50 values were calculated by using the exponential form of the median effect equation as mentioned below for calculation of EC50.
Analysis of Drug Combination Effects. For determination of CI values, drugs were diluted in a fixed ratio and multiple ratios were analyzed. The drug serial dilutions spanned a range of concentrations near the EC50 value of each compound, so that equivalent antiviral activities could be compared. Concentration-response curves were estimated for each individual drug and every combination using the median-effect equation. The equation was fit using a nonlinear regression routine (Proc Nlin) in PC SAS version 8.01 (SAS Institute Inc., SAS Version 8.01, Cary, N.C.: SAS Institute Inc., 1990).
In this equation, Fa stands for “fraction affected,” and represents the fraction of the viral load that has been inactivated. […] ED50 is drug concentration that is expected to reduce the amount of virus by 50%, and m is a parameter that reflects the slope of the concentration-response curve.
To assess antiviral effects of different drug combination treatments, combination indices (CIs) were calculated according to Chou and Rideout. The combination index was computed as CI=[D]1/[Dm]1+[D]2/[Dm]2
In this equation [Dm]1 and [Dm]2 are the concentrations of drugs that would individually produce a specific level of effect, while [D]1 and [D]2 are the concentrations of drugs in combination that would produce the same level of effect.
Theoretically, additivity is implied if the CI is equal to one, synergy if the CI is less than one, and antagonism if the CI is greater than one. […] At best, we can construct a range that contains the likely values for the CI, given the noise in the data. In this report, these ranges are reported in parentheses next to each point estimate of the CI. […] If the range fell entirely above 1.0, we would infer antagonistic behavior. If the range were to include 1.0, we would infer additivity.
In carrying out the combination experiments below, the EC50 for Compound 1 and each comparator compound was determined during the course of each study, and used in the subsequent data analysis.

[1] = combination with Compound 1, EC50 ratio 1:1 (Compound 1:comparator)
[2] = combination with Compound 1, EC50 ratio 1:1
[3] = combination with Compound 1, EC50 ratio 1:2.5
[4] = combination with Compound 1, EC50 ratio 2.5:1

SMILES | EC50 [nM] | Combination Indices at % HIV Inhibition (Confidence Interval) 50% [1] | Combination Indices at % HIV Inhibition (Confidence Interval) 75% [2] | Combination Indices at % HIV Inhibition (Confidence Interval) 90% [2] | Combination Indices at % HIV Inhibition (Confidence Interval) 50% [3] | Combination Indices at % HIV Inhibition (Confidence Interval) 75% [3] | Combination Indices at % HIV Inhibition (Confidence Interval) 90% [3] | Combination Indices at % HIV Inhibition (Confidence Interval) 50% [4] | Combination Indices at % HIV Inhibition (Confidence Interval) 75% [4] | Combination Indices at % HIV Inhibition (Confidence Interval) 90% [4] | Overall Result | Overall Result (listed as zalcitabine) | Overall Result (listed as zidovudine) | Overall Result (listed as atazanavir) | Overall Result (listed as saquinavir) | Overall Result (listed as indinavir)
O=c1[nH]cnc2c1ncn2[C@H]1CC[C@@H](CO)O1 [Didanosine, didanosine] | 1800 | 1.29 (1.18, 1.40) | 0.69 (0.60, 0.78) | 0.37 (0.29, 0.44) | 0.53 (0.46, 0.60) | 0.32 (0.26, 0.38) | 0.19 (0.13, 0.25) | 0.95 (0.74, 1.17) | 0.69 (0.48, 0.90) | 0.50 (0.26, 0.74) |  |  |  |  |  | 
Nc1ccn([C@H]2CC[C@@H](CO)O2)c(=O)n1 [Zalcitabine, zalcitabine] | 110 | 0.55 (0.41, 0.70) | 0.57 (0.36, 0.77) | 0.59 (0.25, 0.92) | 0.87 (0.65, 1.08) | 0.66 (0.44, 0.89) | 0.51 (0.24, 0.78) | 0.68 (0.48, 0.89) | 0.64 (0.37, 0.90) | 0.59 (0.20, 0.98) | Synergistic | consistent synergy at all effective levels and concentration ratios |  |  |  | 
Nc1nc(NC2CC2)c2ncn([C@H]3C=C[C@@H](CO)C3)c2n1 [Abacavir, abacavir] | 400 | 0.29 (0.16, 0.42) | 0.51 (0.20, 0.82) | 0.91 (0.03, 1.78) | 0.53 (0.36, 0.70) | 0.61 (0.33, 0.88) | 0.71 (0.21, 1.22) | 0.36 (0.27, 0.45) | 0.52 (0.34, 0.71) | 0.76 (0.34, 1.19) |  |  |  |  |  | 
Cc1cn([C@H]2C[C@H](N=[N+]=[N-])[C@@H](CO)O2)c(=O)[nH]c1=O [Zidovudine, zidovudine] | 3 | 1.06 (0.85, 1.27) | 0.99 (0.72, 1.26) | 0.93 (0.53, 1.34) | 1.21 (1.01, 1.40) | 0.95 (0.74, 1.16) | 0.76 (0.50, 1.02) | 0.81 (0.69, 0.92) | 0.70 (0.56, 0.83) | 0.60 (0.42, 0.79) | Additive- |  | additive to synergistic |  |  | 
Nc1ccn([C@@H]2CS[C@H](CO)O2)c(=O)n1 [Lamivudine, lamivudine] | 140 | 1.02 (0.80, 1.23) | 0.59 (0.42, 0.76) | 0.37 (0.21, 0.53) | 0.89 (0.76, 1.02) | 0.41 (0.34, 0.47) | 0.20 (0.15, 0.24) | 1.07 (0.95, 1.20) | 0.71 (0.58, 0.83) | 0.50 (0.36, 0.65) |  |  |  |  |  | 
COC(=O)N[C@H](C(=O)N[C@@H](Cc1ccccc1)[C@@H](O)CN(Cc1ccc(-c2ccccn2)cc1)NC(=O)[C@@H](NC(=O)OC)C(C)(C)C)C(C)(C)C [Atazanavir, atazanavir] | 1 | 1.04 (0.60, 1.49) | 0.58 (0.24, 0.93) | 0.33 (0.02, 0.64) | 0.23 (0.09, 0.38) | 0.35 (0.07, 0.63) | 0.52 (0.00, 1.24) | 0.88 (0.49, 1.27) | 0.67 (0.26, 1.09) | 0.52 (0.01, 1.04) | Additive- |  |  | additive to synergistic |  | 
CC(C)(C)NC(=O)[C@@H]1C[C@@H]2CCCC[C@@H]2CN1C[C@@H](O)[C@H](Cc1ccccc1)NC(=O)[C@H](CC(N)=O)NC(=O)c1ccc2ccccc2n1 [Saquinavir, saquinavir] | 9 | 0.97 (0.88, 1.07) | 0.92 (0.76, 1.07) | 0.87 (0.65, 1.09) | 0.22 (0.20, 0.24) | 0.26 (0.22, 0.29) | 0.29 (0.24, 0.35) | 1.07 (0.95, 1.20) | 0.92 (0.74, 1.10) | 0.80 (0.45, 1.14) | Additive- |  |  |  | additive to synergistic | 
CC(C)(C)NC(=O)[C@@H]1CN(Cc2cccnc2)CCN1C[C@@H](O)C[C@@H](Cc1ccccc1)C(=O)N[C@H]1c2ccccc2C[C@H]1O [Indinavir, indinavir] | 0.7 | 0.55 (0.46, 0.64) | 0.57 (0.45, 0.70) | 0.61 (0.39, 0.83) | 0.35 (0.24, 0.47) | 0.21 (0.17, 0.24) | 0.32 (0.20, 0.43) | 0.31 (0.22, 0.40) | 0.41 (0.27, 0.55) | 0.54 (0.20, 0.87) | Synergistic |  |  |  |  | strong synergistic effects
